Test results reported in patent publication US20230250096A1, “SUBSTITUTED PHENYL-1H-PYRROLO[2,3-c] PYRIDINE DERIVATIVES” (Janssen Pharmaceutica NV, priority 2021, published 2023).

Legend:
MEIS1 mRNA expression = MEIS1 mRNA expression assay (Quantigene Singleplex) in MOLM14 cells; assay type: cell-based, human; details: Homo sapiens, MOLM-14, 48 h, 48 hours incubation
Protocol: 2b) MEIS1 mRNA Expression Assay
MEIS1 mRNA expression upon treatment of compound was examined by Quantigene Singleplex assay (Thermo Fisher Scientific). This technology allows for direct quantification of mRNA targets using probes hybridizing to defined target sequences of interest and the signal is detected using a Multimode plate reader Envision (PerkinElmer). The MOLM14 cell line was used for this experiment. Cells were plated in 96-well plates at 3,750 cells/well in the presence of increasing concentrations of compounds. After incubation of 48 hours with compounds, cells were lysed in lysis buffer and incubated for 45 minutes at 55° C. Cell lysates were mixed with human MEIS specific capture probe or human RPL28 (Ribosomal Protein L28) specific probe as a normalization control, as well as blocking probes. Cell lysates were then transferred to the custom assay hybridization plate (Thermo Fisher Scientific) and incubated for 18 to 22 hours at 55° C. Subsequently, plates were washed to remove unbound materials followed by sequential addition of preamplifiers, amplifiers, and label probe. Signals (═gene counts) were measured with a Multimode plate reader Envision. IC50S were calculated by dose-response modelling using appropriate software. For all non-housekeeper genes response equal counts corrected for background and relative expression. For each sample, each test gene signal (background subtracted) was divided by the normalization gene signal (RPL28: background subtracted). Fold changes were calculated by dividing the normalized values for the treated samples by the normalized values for the DMSO treated sample. Fold changes of each target gene were used for the calculation of IC50S.

[1] = molecular target: T1, menin/MLL (terbium chelate-labeled menin, FITC-MBM1 peptide) (Homo sapiens, UniProt O00255, T541A); experiment: Menin/MLL homogenous time-resolved fluorescence (HTRF) assay; assay type: binding; details: 30 min incubation
T1 construct: Menin (a.a 1-610-6xhis tag, 2.3 mg/mL in 20 mM Hepes)
T1 sequence (O00255 with tags, fused parts or gaps T541A): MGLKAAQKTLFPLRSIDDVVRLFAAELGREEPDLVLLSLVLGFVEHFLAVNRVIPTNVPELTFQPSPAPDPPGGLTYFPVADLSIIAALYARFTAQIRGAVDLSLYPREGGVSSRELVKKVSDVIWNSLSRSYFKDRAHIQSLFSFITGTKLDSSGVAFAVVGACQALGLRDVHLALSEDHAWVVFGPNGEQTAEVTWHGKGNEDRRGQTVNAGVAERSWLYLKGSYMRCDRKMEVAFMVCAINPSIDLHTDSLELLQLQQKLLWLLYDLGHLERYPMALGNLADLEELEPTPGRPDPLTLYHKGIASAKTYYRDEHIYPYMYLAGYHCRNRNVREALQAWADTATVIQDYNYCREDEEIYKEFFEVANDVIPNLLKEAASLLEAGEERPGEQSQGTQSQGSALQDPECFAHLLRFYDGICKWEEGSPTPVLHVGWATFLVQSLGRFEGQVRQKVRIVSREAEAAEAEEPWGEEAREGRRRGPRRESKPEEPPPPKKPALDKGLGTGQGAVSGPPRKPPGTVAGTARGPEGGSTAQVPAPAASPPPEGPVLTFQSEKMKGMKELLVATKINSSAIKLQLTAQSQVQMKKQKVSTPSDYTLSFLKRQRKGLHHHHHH
Protocol: 1) Menin/MLL Homogenous Time-Resolved Fluorescence (HTRF) Assay
To an untreated, white 384-well microtiter plate was added 40 nL 200× test compound in DMSO and 4 μL 2× terbium chelate-labeled menin (vide infra for preparation) in assay buffer (40 mM Tris HCl, pH 7.5, 50 mM NaCl. 1 mM DTT (dithiothreitol) and 0.05% Pluronic F-127). After incubation of test compound and terbium chelate-labeled menin for 30 min at ambient temperature, 4 μL 2×FITC-MBM1 peptide (FITC-β-alanine-[…]-NH2) (“FITC” means fluorescein isothiocyanate) in assay buffer was added, the microtiter plate centrifuged at 1000 rpm for 1 min and the assay mixtures incubated for 15 min at ambient temperature. The relative amount of menin FITC-MBM1 complex present in an assay mixture is determined by measuring the homogenous time-resolved fluorescence (HTRF) of the terbium/FITC donor/acceptor fluorphore pair using an EnVision microplate reader (ex. 337 nm/terbium em. 490 nm/FITC em. 520 nm) at ambient temperature. The degree of fluorescence resonance energy transfer (the HTRF value) is expressed as the ratio of the fluorescence emission intensities of the FITC and terbium fluorophores (F^em520 nm/F^em490 nm). The final concentrations of reagents in the binding assay are […] terbium chelate-labeled menin, 75 nM FITC-MBM1 peptide and 0.5% DMSO in assay buffer. Dose-response titrations of test compounds are conducted using an 11 point, four-fold serial dilution scheme, starting typically at 10 μM.
Compound potencies were determined by first calculating % inhibition at each compound concentration according to equation 1:
% inhibition=((HC−LC)−(HTRF^compound−LC))/(HC−LC))*100 (Eqn 1)
Where LC and HC are the HTRF values of the assay in the presence or absence of a saturating concentration of a compound that competes with FITC-MBM1 for binding to menin, and HTRF^compound is the measured HTRF value in the presence of the test compound. HC and LC HTRF values represent an average of at least 10 replicates per plate.
% inhibition=Bottom+(Top−Bottom)/(1+10^((log/C50−log[cmpd])*h)) (Eqn 2)
Where Bottom and Top are the lower and upper asymptotes of the dose-response curve, respectively, IC50 is the concentration of compound that yields 50% inhibition of signal and h is the Hill coefficient.
Preparation of Terbium cryptate labeling of Menin: Menin (a.a 1-610-6xhis tag, 2.3 mg/mL in 20 mM Hepes (2-[4-(2-Hydroxyethyl)-1-piperazinyl]ethane sulfonic acid), 80 mM NaCl, 5 mM DTT (Dithiothreitol), pH 7.5) was labeled with terbium cryptate as follows. 200 μg of Menin was buffer exchanged into 1×Hepes buffer. 6.67 μM Menin was incubated with 8-fold molar excess NHS (N-hydroxysuccinimide)-terbium cryptate for 40 minutes at room temperature. Half of the labeled protein was purified away from free label by running the reaction over a NAP5 column with elution buffer (0.1M Hepes, pH 7+0.1% BSA (bovine serum albumin)). The other half was eluted with 0.1 M phosphate buffered saline (PBS), pH7. 400 μl of eluent was collected for each, aliquoted and frozen at −80° C. The final concentration of terbium-labeled Menin protein was 115 μg/mL in Hepes buffer and 85 μg/mL in PBS buffer, respectively.

Row | Structure (SMILES) | IC50 (MEIS1 mRNA expression) [nM] | IC50 [1] [nM]
1 | Cc1cncc2c1c(C[C@@H]1CCN(C(C)C3CCOCC3)C1)cn2-c1ccc(F)cc1C(=O)N(C)C(C)C (mixture of isomers) [Compound 48] | 20 | 0.06
2 | Cc1cncc2c1c(C[C@H]1CCN(CC3CCCC(=O)N3)C1)cn2-c1ccc(F)cc1C(=O)N(C)C(C)C (mixture of isomers) [Compound 89] | ~895 | 0.183
3 | Cc1cncc2c1c(C[C@@H]1CCN(C3CCNC(=O)CC3)C1)cn2-c1ccc(F)cc1C(=O)N(C)C(C)C (mixture of isomers) [Compound 139] | 444 | 0.119
4 | CC(=O)N1CCCC(N2CC[C@@H](Cc3cn(-c4ccc(F)cc4C(=O)N(C)C(C)C)c4cncc(C)c34)C2)C1 (mixture of isomers) [Compound 215] | 299 | 0.291
5 | CC(=O)N1CCCC(N2CC[C@@H](Cc3cn(-c4ccc(F)cc4C(=O)N(C)C(C)C)c4cncc(C)c34)C2)CC1 (mixture of isomers) [Compound 216] | 100 | 0.187
6 | CC(=O)N1CCCC(N2CC[C@H](Cc3cn(-c4ccc(F)cc4C(=O)N(C)C(C)C)c4cncc(C)c34)C2)CC1 (mixture of isomers) [Compound 222] | 259 | 0.103
7 | CC(=O)N1CCC(CN2CC[C@H](Cc3cn(-c4ccc(F)cc4S4(=O)=NCCC4)c4cncc(C)c34)C2)CC1 (mixture of isomers) [Compound 224] | ~3880 | 8.66
8 | CC(=O)NCC(C1CCN(C(C)=O)CC1)N1CC[C@@H](Cc2cn(-c3ccc(F)cc3C(=O)N(C)C(C)C)c3cncc(C)c23)C1 (mixture of isomers) [Compound 225] | 340 | 0.637
9 | CC(=O)N1CCC(N2CC[C@@H](Cc3cn(-c4ccc(F)cc4C(=O)N(C)C(C)C)c4cncc(C)c34)C2)C(C)(C)C1 (mixture of isomers) [Compound 234] | 18 | ~0.068
10 | CC(=O)N1CCC(N2CC[C@@H](Cc3cn(-c4ccc(F)cc4C(=O)N(C)C(C)C)c4cncc(C)c34)C2)C(CO)C1 (mixture of isomers) [Compound 248] | 11 | 0.255
11 | CCN(C(=O)c1cc(F)ccc1-n1cc(C[C@@H]2CCN(CC3CCNC(=O)CC3)C2)c2c(C)cncc21)C(C)C (mixture of isomers) [Compound 254] | 19 | 0.071
12 | COCCN(C)CCC[C@H](C(C)C)N1CC[C@H](Cc2cn(-c3ccc(F)cc3C(=O)N(C)C(C)C)c3cncc(C)c23)C1 (single isomer, unassigned) [Compound 2a] | 36 | 0.024

Results, then the compound that gave them:

Row | IC50 (MEIS1 mRNA expression) [nM] | IC50 [1] [nM] | Structure (SMILES)
13 | 13 | 0.024 | CC(=O)N1CCN(CCC[C@H](C(C)C)N2CC[C@@H](Cc3cn(-c4ccc(F)cc4C(=O)N(C)C(C)C)c4cncc(C)c34)C2)CC1 (single isomer, unassigned) [Compound 8a]
14 | 44 | ~7.3 | CC(=O)N1CCN(CCC[C@@H](C(C)C)N2CC[C@@H](Cc3cn(-c4ccc(F)cc4C(=O)N(C)C(C)C)c4cncc(C)c34)C2)CC1 (single isomer, unassigned) [Compound 8b]
15 | 42 | 0.975 | CC(=O)N1CCN(CCC[C@@H](C(C)C)N2CC[C@H](Cc3cn(-c4ccc(F)cc4C(=O)N(C)C(C)C)c4cncc(C)c34)C2)CC1 (single isomer, unassigned) [Compound 9b]
16 | 5 | 0.019 | CC(=O)N1C[C@@H]2CN(CCC[C@H](C(C)C)N3CC[C@@H](Cc4cn(-c5ccc(F)cc5C(=O)N(C)C(C)C)c5cncc(Cl)c45)C3)C[C@H]2C1 (single isomer, unassigned) [Compound 18a]
17 | 110 | 0.017 | CC(=O)N1C[C@@H]2CN(CCC[C@@H](C(C)C)N3CC[C@@H](Cc4cn(-c5ccc(F)cc5C(=O)N(C)C(C)C)c5cncc(Cl)c45)C3)C[C@H]2C1 (single isomer, unassigned) [Compound 18b]
